Source: patent US20170190671A1, “BIS(ARYL)CATECHOL DERIVATIVES AS HERBICIDES” (E I DU PONT DE NEMOURS AND COMPANY, priority 2014, published 2017)

What was measured:
Type in all cases: in vivo
Conditions in all cases: scale 0 to 100
[1] = test system: pigweed (Amaranthus retroflexus); assay: Test D preemergence
Source text: (§1) Seeds of plant species selected from bluegrass (annual bluegrass, Poa annua), blackgrass (Alopecurus myosuroides), canarygrass (Phalaris minor), chickweed (common chickweed, Stellaria media), cutleaf geranium (Geranium dissectum), galium (catchweed bedstraw, Galium aparine), downy bromegrass (Bromus tectorum), field poppy (Papaver rhoeas), field violet (Viola arvensis), green foxtail (Setaria viridis), deadnettle (henbit deadnettle, Lamium amplexicaule), Italian ryegrass (Lolium multiflorum), kochia (Kochia scoparia), lambsquarters (Chenopodium album), oilseed rape (Brassica napus), pigweed (Amaranthus retroflexus), chamomile (scentless chamomile, Matricaria inodora), Russian thistle (Salsola kali), speedwell (bird's-eye speedwell, Veronica persica), spring barley (Hordeum vulgare), spring wheat (Triticum aestivum), wild buckwheat (Polygonum convolvulus), wild mustard (Sinapis arvensis), wild oat (Avenafatua), wild radish (Raphanus raphanistrum), windgrass (Apera spica-venti), winter barley (Hordeum vulgare), and winter wheat (Triticum aestivum) were planted into a silt loam soil and treated preemergence with test chemicals formulated in a non-phytotoxic solvent mixture which included a surfactant.
(§2) At the same time, these species were planted in pots containing Redi-Earth® planting medium (Scotts Company, 14111 Scottslawn Road, Marysville, Ohio 43041) comprising spaghnum peat moss, vermiculite, wetting agent and starter nutrients and treated with postemergence applications of the test chemicals formulated in the same manner. Plants ranged in height from 2 to 18 cm (1- to 4-leaf stage). Treated plants and controls were maintained in a controlled growth environment for 14 to 21 days after which time all species were compared to controls and visually evaluated. Plant response ratings, summarized in Table D, are based on a scale of 0 to 100 where 0 is no effect and 100 is complete control. A dash (-) response means no test result.

[2] = test system: galium (catchweed bedstraw, Galium aparine); assay: Test D preemergence
Source text: as §1, §2

[3] = test system: chickweed (common chickweed, Stellaria media); assay: Test D preemergence
Source text: as §1, §2

[4] = test system: winter barley (Hordeum vulgare); assay: Test D preemergence
Source text: as §1, §2

kochia (Kochia scoparia) = assay: Test D preemergence
Source text: as §1, §2

[5] = test system: field poppy (Papaver rhoeas); assay: Test D preemergence
Source text: as §1, §2

[6] = test system: wild buckwheat (Polygonum convolvulus); assay: Test D preemergence
Source text: as §1, §2

[7] = test system: Italian ryegrass (Lolium multiflorum); assay: Test D preemergence
Source text: as §1, §2

[8] = test system: windgrass (Apera spica-venti); assay: Test D preemergence
Source text: as §1, §2

[9] = test system: oilseed rape (Brassica napus); assay: Test D preemergence
Source text: as §1, §2

[10] = test system: spring wheat (Triticum aestivum); assay: Test D preemergence
Source text: as §1, §2

[11] = test system: downy bromegrass (Bromus tectorum); assay: Test D preemergence
Source text: as §1, §2

[12] = test system: canarygrass (Phalaris minor); assay: Test D preemergence
Source text: as §1, §2

[13] = test system: wild mustard (Sinapis arvensis); assay: Test D preemergence
Source text: as §1, §2

[14] = test system: blackgrass (Alopecurus myosuroides); assay: Test D preemergence
Source text: as §1, §2

[15] = test system: spring barley (Hordeum vulgare); assay: Test D preemergence
Source text: as §1, §2

[16] = test system: bluegrass (annual bluegrass, Poa annua); assay: Test D preemergence
Source text: as §1, §2

[17] = test system: deadnettle (henbit deadnettle, Lamium amplexicaule); assay: Test D preemergence
Source text: as §1, §2

[18] = test system: speedwell (bird's-eye speedwell, Veronica persica); assay: Test D preemergence
Source text: as §1, §2

[19] = test system: canarygrass (Phalaris minor); assay: Test D postemergence
How it was run: (§3)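 Plants were kept in a controlled environment for 14 to 21 days after spraying, then compared with untreated controls. Scores run from 0, no effect, to 100, complete control; preemergence pots used silt loam and postemergence pots a peat-based medium.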

[20] = test system: deadnettle (henbit deadnettle, Lamium amplexicaule); assay: Test D postemergence
How it was run: as §3

FC(F)(F)c1cnc(Oc2c(Br)cccc2Oc2ncc(Cl)cn2)nc1 [Compound 24]
80: Plant response rating, Oilseed Rape ([9]; 125 g ai/ha)
55: Plant response rating, Mustard, Wild ([13]; 62 g ai/ha) | Plant response rating, Blackgrass ([14]; 125 g ai/ha) | Plant response rating, Deadnettle ([20]; 16 g ai/ha)
100: Plant response rating, Pigweed ([1]; 31 g ai/ha) | Plant response rating, Pigweed ([1]; 62 g ai/ha) | Plant response rating, Pigweed ([1]; 125 g ai/ha) | Plant response rating, Chickweed ([3]; 31 g ai/ha) | Plant response rating, Chickweed ([3]; 62 g ai/ha) | Plant response rating, Chickweed ([3]; 125 g ai/ha) | Plant response rating, Kochia (kochia (Kochia scoparia); 125 g ai/ha) | Plant response rating, Field Poppy ([5]; 31 g ai/ha) | Plant response rating, Field Poppy ([5]; 62 g ai/ha) | Plant response rating, Field Poppy ([5]; 125 g ai/ha) | Plant response rating, Buckwheat, Wild ([6]; 125 g ai/ha) | Plant response rating, Mustard, Wild ([13]; 125 g ai/ha) | Plant response rating, Deadnettle ([17]; 62 g ai/ha) | Plant response rating, Deadnettle ([17]; 125 g ai/ha) | Plant response rating, Speedwell ([18]; 31 g ai/ha) | Plant response rating, Speedwell ([18]; 62 g ai/ha) | Plant response rating, Speedwell ([18]; 125 g ai/ha)
70: Plant response rating, Galium ([2]; 125 g ai/ha) | Plant response rating, Barley, Winter ([4]; 125 g ai/ha) | Plant response rating, Deadnettle ([20]; 31 g ai/ha)
25: Plant response rating, Galium ([2]; 31 g ai/ha) | Plant response rating, Barley, Winter ([4]; 62 g ai/ha) | Plant response rating, Kochia (kochia (Kochia scoparia); 31 g ai/ha) | Plant response rating, Ryegrass, Italian ([7]; 62 g ai/ha) | Plant response rating, Windgrass ([8]; 62 g ai/ha) | Plant response rating, Canarygrass ([12]; 16 g ai/ha) | Plant response rating, Blackgrass ([14]; 31 g ai/ha) | Plant response rating, Bluegrass ([16]; 62 g ai/ha)
30: Plant response rating, Canarygrass ([12]; 31 g ai/ha) | Plant response rating, Barley, Spring ([15]; 62 g ai/ha) | Plant response rating, Deadnettle ([17]; 16 g ai/ha) | Plant response rating, Canarygrass ([19]; 16 g ai/ha)
20: Plant response rating, Buckwheat, Wild ([6]; 62 g ai/ha) | Plant response rating, Oilseed Rape ([9]; 62 g ai/ha) | Plant response rating, Bromegrass, Downy ([11]; 16 g ai/ha) | Plant response rating, Barley, Spring ([15]; 31 g ai/ha) | Plant response rating, Bluegrass ([16]; 31 g ai/ha)
35: Plant response rating, Bromegrass, Downy ([11]; 31 g ai/ha) | Plant response rating, Bromegrass, Downy ([11]; 62 g ai/ha) | Plant response rating, Canarygrass ([12]; 62 g ai/ha) | Plant response rating, Mustard, Wild ([13]; 31 g ai/ha) | Plant response rating, Blackgrass ([14]; 62 g ai/ha) | Plant response rating, Bluegrass ([16]; 125 g ai/ha) | Plant response rating, Speedwell ([18]; 16 g ai/ha) | Plant response rating, Canarygrass ([19]; 31 g ai/ha)
15: Plant response rating, Barley, Winter ([4]; 31 g ai/ha) | Plant response rating, Ryegrass, Italian ([7]; 31 g ai/ha) | Plant response rating, Windgrass ([8]; 31 g ai/ha) | Plant response rating, Oilseed Rape ([9]; 31 g ai/ha) | Plant response rating, Mustard, Wild ([13]; 16 g ai/ha) | Plant response rating, Blackgrass ([14]; 16 g ai/ha) | Plant response rating, Bluegrass ([16]; 16 g ai/ha)
75: Plant response rating, Field Poppy ([5]; 16 g ai/ha) | Plant response rating, Deadnettle ([20]; 62 g ai/ha)
5: Plant response rating, Windgrass ([8]; 16 g ai/ha)
85: Plant response rating, Galium ([2]; 62 g ai/ha) | Plant response rating, Windgrass ([8]; 125 g ai/ha) | Plant response rating, Barley, Spring ([15]; 125 g ai/ha) | Plant response rating, Deadnettle ([20]; 125 g ai/ha)
60: Plant response rating, Pigweed ([1]; 16 g ai/ha) | Plant response rating, Kochia (kochia (Kochia scoparia); 62 g ai/ha) | Plant response rating, Deadnettle ([17]; 31 g ai/ha)
65: Plant response rating, Ryegrass, Italian ([7]; 125 g ai/ha)
0: Plant response rating, Galium ([2]; 16 g ai/ha) | Plant response rating, Kochia (kochia (Kochia scoparia); 16 g ai/ha) | Plant response rating, Oilseed Rape ([9]; 16 g ai/ha) | Plant response rating, Wheat, Spring ([10]; 16 g ai/ha) | Plant response rating, Wheat, Spring ([10]; 31 g ai/ha) | Plant response rating, Wheat, Spring ([10]; 62 g ai/ha) | Plant response rating, Barley, Spring ([15]; 16 g ai/ha)
10: Plant response rating, Chickweed ([3]; 16 g ai/ha) | Plant response rating, Barley, Winter ([4]; 16 g ai/ha) | Plant response rating, Buckwheat, Wild ([6]; 16 g ai/ha) | Plant response rating, Ryegrass, Italian ([7]; 16 g ai/ha)
40: Plant response rating, Wheat, Spring ([10]; 125 g ai/ha)
45: Plant response rating, Bromegrass, Downy ([11]; 125 g ai/ha) | Plant response rating, Canarygrass ([12]; 125 g ai/ha) | Plant response rating, Canarygrass ([19]; 62 g ai/ha) | Plant response rating, Canarygrass ([19]; 125 g ai/ha)
